Experiments:
[1] = biological target: LIM domain kinase 1 (Homo sapiens) (UniProt P53667); assay: Selectivity interaction (LanthaScreen Eu Kinase Binding Assay) EUB0001632a LIMK1; conditions: at 10 µM
[2] = biological target: Protein kinase C gamma type (Homo sapiens) (UniProt P05129); assay: Selectivity interaction (SelectScreen profiling (Invitrogen)) EUB0000607a PRKCG; conditions: at 2 µM
[3] = biological target: T1, Mitogen-activated protein kinase kinase kinase 5 (Homo sapiens) (UniProt Q99683); assay: Selectivity interaction (ActivX KiNativ screen (kinase selectivity in THP-1 cell lysates)) EUB0000639a MAP3K5; format: subcellular; conditions: lysate, at 0.04 µM
T1 sequence (whole entry): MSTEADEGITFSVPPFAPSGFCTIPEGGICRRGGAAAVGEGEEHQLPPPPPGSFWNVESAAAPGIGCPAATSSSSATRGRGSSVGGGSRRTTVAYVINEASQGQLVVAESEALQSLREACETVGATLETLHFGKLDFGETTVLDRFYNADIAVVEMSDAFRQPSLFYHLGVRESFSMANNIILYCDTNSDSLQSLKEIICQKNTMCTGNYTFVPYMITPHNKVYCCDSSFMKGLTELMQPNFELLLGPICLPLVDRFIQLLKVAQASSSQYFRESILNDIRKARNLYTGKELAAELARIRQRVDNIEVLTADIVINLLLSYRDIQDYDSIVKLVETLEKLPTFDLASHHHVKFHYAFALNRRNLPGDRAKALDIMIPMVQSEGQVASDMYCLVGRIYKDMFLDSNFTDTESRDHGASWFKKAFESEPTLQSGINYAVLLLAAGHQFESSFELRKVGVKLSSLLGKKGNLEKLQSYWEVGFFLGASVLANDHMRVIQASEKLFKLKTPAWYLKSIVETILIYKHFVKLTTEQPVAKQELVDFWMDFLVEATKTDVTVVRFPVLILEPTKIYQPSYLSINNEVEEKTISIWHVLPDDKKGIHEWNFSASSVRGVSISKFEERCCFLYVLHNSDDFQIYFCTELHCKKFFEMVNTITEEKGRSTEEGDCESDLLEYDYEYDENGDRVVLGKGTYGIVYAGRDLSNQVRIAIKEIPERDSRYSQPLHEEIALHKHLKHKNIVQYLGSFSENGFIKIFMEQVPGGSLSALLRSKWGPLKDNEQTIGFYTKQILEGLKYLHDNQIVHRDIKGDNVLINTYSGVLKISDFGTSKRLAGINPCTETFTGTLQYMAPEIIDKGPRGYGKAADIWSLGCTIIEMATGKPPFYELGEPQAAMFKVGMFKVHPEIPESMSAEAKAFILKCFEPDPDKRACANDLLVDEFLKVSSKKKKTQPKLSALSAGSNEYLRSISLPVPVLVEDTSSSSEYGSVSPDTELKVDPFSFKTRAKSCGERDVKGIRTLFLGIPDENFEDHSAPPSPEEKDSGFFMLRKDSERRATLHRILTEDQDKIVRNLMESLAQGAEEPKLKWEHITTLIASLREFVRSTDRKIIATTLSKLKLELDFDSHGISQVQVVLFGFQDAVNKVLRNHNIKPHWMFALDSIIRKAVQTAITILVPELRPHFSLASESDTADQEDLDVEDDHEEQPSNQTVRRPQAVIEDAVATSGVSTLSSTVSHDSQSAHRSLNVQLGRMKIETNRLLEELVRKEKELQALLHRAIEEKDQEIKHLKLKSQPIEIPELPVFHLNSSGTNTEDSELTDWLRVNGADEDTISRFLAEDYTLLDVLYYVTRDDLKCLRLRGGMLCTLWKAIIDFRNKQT

[4] = biological target: Citron Rho-interacting kinase (Homo sapiens) (UniProt O14578); assay: Selectivity interaction (KinomeScan (DiscoverX)) EUB0000595a CIT; conditions: at 10 µM
[5] = biological target: Ribosomal protein S6 kinase alpha-1 (Homo sapiens, UniProt Q15418); assay: Selectivity interaction (Ambit KINOMEscan and KiNATiv profiling in Jurkat cells) EUB0000090b RPS6KA1; format: cell-based; conditions: at 1 µM
Chain of Ribosomal protein S6 kinase alpha-1 (Q15418 whole entry): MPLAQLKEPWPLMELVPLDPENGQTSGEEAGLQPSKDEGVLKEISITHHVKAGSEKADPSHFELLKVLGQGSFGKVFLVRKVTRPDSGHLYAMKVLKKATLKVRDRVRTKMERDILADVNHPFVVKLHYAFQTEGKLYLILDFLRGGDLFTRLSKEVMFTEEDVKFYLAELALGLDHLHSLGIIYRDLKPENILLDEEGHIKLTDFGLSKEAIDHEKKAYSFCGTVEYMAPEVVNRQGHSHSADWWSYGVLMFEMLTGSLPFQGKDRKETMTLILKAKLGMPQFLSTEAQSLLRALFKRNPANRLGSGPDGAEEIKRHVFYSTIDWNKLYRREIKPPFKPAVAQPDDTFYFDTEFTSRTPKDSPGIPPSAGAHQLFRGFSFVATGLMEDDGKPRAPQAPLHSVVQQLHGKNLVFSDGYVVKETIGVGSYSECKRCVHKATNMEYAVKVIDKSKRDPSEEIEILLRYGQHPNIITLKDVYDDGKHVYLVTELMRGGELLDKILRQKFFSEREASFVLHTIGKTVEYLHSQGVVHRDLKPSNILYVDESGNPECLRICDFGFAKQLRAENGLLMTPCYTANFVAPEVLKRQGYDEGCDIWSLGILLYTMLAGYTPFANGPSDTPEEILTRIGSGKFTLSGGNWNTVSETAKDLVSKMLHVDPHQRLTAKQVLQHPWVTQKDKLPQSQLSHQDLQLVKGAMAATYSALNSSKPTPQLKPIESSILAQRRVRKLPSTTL

[6] = biological target: Tyrosine-protein kinase Fyn (Homo sapiens) (UniProt P06241); assay: Selectivity interaction (KinomeScan (DiscoverX)) EUB0000655a FYN; conditions: at 10 µM
[7] = biological target: Mitogen-activated protein kinase 9 (Homo sapiens, UniProt P45984); assay: Selectivity interaction (KinomeScan (DiscoverX)) EUB0000655a MAPK9; conditions: at 10 µM
Chain of Mitogen-activated protein kinase 9 (P45984 whole entry, looked up): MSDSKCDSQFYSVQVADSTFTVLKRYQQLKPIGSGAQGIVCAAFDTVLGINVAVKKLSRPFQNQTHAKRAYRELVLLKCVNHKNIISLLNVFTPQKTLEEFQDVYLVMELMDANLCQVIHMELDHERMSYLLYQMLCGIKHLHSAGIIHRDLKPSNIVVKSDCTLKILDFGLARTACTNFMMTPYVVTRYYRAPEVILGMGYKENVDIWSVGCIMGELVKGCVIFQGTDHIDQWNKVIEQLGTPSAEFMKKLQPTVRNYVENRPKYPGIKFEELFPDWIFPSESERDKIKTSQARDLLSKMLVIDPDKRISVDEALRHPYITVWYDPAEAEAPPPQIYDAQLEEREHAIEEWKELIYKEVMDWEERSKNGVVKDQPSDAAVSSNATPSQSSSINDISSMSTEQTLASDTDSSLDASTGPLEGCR

[8] = tested on: Epidermal growth factor receptor (Homo sapiens), P00533 [UNDEFINED MUTATION]; assay: Selectivity interaction (KinomeScan (DiscoverX)) EUB0000045b EGFR; conditions: at 10 µM
Chain of Epidermal growth factor receptor (Homo sapiens), P00533 [UNDEFINED MUTATION] (P00533 whole entry, looked up, change not shown): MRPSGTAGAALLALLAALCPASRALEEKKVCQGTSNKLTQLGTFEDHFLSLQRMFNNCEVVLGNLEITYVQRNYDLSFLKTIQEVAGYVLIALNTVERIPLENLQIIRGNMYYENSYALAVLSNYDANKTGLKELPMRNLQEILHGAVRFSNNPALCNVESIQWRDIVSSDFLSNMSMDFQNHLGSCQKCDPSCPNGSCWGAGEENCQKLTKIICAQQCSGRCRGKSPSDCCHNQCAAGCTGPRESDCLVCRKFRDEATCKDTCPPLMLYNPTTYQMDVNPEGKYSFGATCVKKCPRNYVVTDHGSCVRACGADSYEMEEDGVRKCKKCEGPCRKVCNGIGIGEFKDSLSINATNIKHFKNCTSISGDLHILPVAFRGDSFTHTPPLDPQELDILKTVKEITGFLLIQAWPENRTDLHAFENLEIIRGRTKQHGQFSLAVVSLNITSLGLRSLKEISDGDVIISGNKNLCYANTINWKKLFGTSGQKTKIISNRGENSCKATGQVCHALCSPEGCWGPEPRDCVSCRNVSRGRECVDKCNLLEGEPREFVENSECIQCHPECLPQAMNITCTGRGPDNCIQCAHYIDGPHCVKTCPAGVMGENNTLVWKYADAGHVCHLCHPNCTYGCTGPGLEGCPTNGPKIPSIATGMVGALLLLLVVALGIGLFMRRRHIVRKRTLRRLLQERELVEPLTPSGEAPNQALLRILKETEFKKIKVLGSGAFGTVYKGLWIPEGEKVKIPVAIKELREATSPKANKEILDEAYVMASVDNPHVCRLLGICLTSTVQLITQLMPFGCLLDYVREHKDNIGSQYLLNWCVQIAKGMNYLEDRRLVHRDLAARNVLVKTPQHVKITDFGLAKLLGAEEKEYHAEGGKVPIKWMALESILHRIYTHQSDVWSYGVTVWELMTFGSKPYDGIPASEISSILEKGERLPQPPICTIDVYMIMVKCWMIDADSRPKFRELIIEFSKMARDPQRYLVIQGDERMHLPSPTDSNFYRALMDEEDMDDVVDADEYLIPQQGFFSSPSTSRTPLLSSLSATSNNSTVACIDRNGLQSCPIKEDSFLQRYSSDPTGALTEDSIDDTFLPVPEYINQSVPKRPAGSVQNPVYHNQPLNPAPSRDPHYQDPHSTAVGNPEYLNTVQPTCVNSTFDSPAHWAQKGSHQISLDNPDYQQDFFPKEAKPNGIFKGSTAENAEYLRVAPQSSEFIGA

[9] = biological target: Serine/threonine-protein kinase OSR1 (Homo sapiens) (UniProt O95747); assay: Selectivity interaction (KinomeScan (DiscoverX)) EUB0001079a OXSR1; conditions: at 1 µM
Chain of Serine/threonine-protein kinase OSR1 (Homo sapiens) (O95747 2-527 limits assumed): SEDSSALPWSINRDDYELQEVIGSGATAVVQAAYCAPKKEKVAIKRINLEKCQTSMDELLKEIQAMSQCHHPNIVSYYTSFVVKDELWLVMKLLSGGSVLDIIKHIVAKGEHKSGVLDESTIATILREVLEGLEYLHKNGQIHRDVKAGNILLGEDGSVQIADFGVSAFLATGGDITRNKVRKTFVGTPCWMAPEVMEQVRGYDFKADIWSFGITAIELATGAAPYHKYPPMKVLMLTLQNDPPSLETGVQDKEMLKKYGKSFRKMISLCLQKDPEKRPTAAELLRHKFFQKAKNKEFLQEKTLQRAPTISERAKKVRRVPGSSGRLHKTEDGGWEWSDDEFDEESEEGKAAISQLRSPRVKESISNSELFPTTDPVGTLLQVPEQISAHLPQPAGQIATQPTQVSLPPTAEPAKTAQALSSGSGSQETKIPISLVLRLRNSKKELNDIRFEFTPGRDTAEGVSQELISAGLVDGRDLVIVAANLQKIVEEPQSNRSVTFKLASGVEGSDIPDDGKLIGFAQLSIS

[10] = biological target: T2, Serine/threonine-protein kinase STK11 (Homo sapiens) (UniProt Q15831); assay: Selectivity interaction (Kinase panel (KiNativ target engagement assay in Jurkat cells)) EUB0001635a STK11; format: cell-based; conditions: Selectivity number of off-targets 0.0, Selectivity number of targets 233.0, Source Knowledge https://www.sciencedirect.com/science/article/pii/S2451945619300674?via%3Dihub, at 1 µM
T2 sequence (whole entry): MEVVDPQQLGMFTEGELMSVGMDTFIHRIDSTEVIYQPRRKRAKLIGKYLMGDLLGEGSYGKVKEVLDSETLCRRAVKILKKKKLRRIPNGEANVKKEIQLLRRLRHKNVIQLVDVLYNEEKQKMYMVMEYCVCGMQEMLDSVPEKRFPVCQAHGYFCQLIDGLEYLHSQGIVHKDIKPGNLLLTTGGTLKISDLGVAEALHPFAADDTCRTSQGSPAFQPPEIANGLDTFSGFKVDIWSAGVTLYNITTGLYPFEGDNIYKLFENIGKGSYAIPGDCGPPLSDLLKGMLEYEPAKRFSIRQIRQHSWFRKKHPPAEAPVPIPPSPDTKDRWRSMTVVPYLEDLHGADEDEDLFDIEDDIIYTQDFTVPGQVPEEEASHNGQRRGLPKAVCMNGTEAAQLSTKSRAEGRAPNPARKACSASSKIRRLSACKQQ

[11] = biological target: Mitogen-activated protein kinase 8 (Homo sapiens, UniProt P45983); assay: Selectivity interaction (KinomeScan (DiscoverX)) EUB0000229b MAPK8; conditions: at 10 µM
Chain of Mitogen-activated protein kinase 8 (P45983 whole entry): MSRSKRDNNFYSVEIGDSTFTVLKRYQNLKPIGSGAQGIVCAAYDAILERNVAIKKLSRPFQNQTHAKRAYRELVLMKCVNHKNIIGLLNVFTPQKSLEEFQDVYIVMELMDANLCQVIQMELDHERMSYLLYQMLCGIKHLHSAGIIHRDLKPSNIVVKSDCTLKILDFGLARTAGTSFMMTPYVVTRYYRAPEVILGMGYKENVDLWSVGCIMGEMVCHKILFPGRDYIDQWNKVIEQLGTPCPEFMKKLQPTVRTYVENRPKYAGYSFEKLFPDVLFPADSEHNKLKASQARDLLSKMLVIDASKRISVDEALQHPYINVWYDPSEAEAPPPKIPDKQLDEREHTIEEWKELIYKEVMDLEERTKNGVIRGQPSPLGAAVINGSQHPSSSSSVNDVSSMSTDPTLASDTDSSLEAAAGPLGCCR

[12] = biological target: DNA-dependent protein kinase catalytic subunit (Homo sapiens) (UniProt P78527); assay: Selectivity interaction (ActivX KiNativ screen (ex vivo kinase selectivity in human PBMCs)) EUB0001619a PRKDC; format: cell-based; conditions: PBMC, at 1 µM
[13] = biological target: Interferon-induced, double-stranded RNA-activated protein kinase (Homo sapiens) (UniProt P19525); assay: Selectivity interaction (ActivX KiNativ screen (ex vivo kinase selectivity in human PBMCs)) EUB0001619a EIF2AK2; format: cell-based; conditions: PBMC, at 1 µM
Chain of Interferon-induced, double-stranded RNA-activated protein kinase (Homo sapiens) (P19525 whole entry): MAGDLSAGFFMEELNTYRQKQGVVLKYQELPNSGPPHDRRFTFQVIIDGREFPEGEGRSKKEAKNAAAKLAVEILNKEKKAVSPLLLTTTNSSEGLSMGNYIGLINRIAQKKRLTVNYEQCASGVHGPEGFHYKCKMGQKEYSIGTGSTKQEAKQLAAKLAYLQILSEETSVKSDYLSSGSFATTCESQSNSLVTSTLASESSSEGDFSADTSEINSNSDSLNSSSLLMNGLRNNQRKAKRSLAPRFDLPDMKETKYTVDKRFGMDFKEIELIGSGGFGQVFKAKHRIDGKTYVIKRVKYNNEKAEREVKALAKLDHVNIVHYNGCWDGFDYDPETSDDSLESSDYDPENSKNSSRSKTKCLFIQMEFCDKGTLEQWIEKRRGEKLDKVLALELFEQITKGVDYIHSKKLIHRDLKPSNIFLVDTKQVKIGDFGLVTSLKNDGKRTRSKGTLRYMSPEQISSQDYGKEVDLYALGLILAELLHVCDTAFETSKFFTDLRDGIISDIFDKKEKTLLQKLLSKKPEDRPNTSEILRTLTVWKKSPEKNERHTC

Structure (SMILES): Cn1cc(-n2cnc3c(NCc4nc5cc(Cl)c(Cl)cc5[nH]4)nc(N4CCOCC4)nc32)cn1
- % of inhibition [1]: -36.5%

Structure (SMILES): CNC(=O)Nc1ccc(-c2nc(N3CC4CCC(C3)O4)c3cnn(C4CCC5(CC4)OCCO5)c3n2)cc1
- % of inhibition [2]: 11%

Structure (SMILES): CC[C@@H]1[C@H](F)C(=O)N[C@@H]1COc1nccc2cc(C(N)=O)c(OC)cc12 [ZIMLOVISERTIB]
- % of inhibition [3]: -7.7%

Structure (SMILES): COCC(=O)NC/C=C/c1ccc2ncnc(Nc3ccc(Oc4ccc(C)nc4)c(C)c3)c2c1 [CP-724714]
- % of control [4]: 76%

Structure (SMILES): CN(C)C/C=C/C(=O)Nc1ccc(C(=O)N2CCCC(Nc3ncc(Cl)c(-c4c[nH]c5ccccc45)n3)C2)cc1 (stereo not drawn)
- % of control [5]: 14%

Structure (SMILES): CN(C)CCOc1ccc(-c2nc(-c3ccncc3)c(-c3ccc4c(c3)CC/C4=N\O)[nH]2)cc1
- % of control [6]: 79%
- % of control [7]: 5.1%

Structure (SMILES): C=CC(=O)Nc1cc(-n2c(=O)ccc3cnc4ccc(-c5ccc(NS(C)(=O)=O)cc5)cc4c32)ccc1C
- % of control [8]: 65%

Structure (SMILES): Nc1cnc(N2CCc3cc(S(=O)(=O)Nc4c(F)cc(Cl)cc4F)cc(N4CCCC4=O)c32)nc1 [TP-020n]
- % of control [9]: 75%

Structure (SMILES): C=CC(=O)Nc1ccc(C(=O)Nc2[nH]nc3c2CN(C(=O)N[C@H](CN(C)C)c2ccccc2)C3(C)C)cc1
- % of engagement [10]: 11.1%

Structure (SMILES): COc1cc(N(C)c2ccnc3ccc(C(F)(F)F)cc23)cc(OC)c1OC
- % binding [11]: 72%

Structure (SMILES): N#Cc1cccc(-c2c[nH]c3ncnc(N4CCOCC4)c23)c1
- % of inhibition [12]: -4%
- % of inhibition [13]: 12%

— ChEMBL document CHEMBL5465560, “Selectivity Literature for EUbOPEN Chemogenomic Library” (2024)
